Measured values as given in paper PMC12467382, “Synthesis and Bioevaluation of Chalcones as Broad-Spectrum Antiviral Compounds Against Single-Stranded RNA Viruses” (Biomolecules, 2025).

Columns and labels:
Hs27 cells = assay: 48 h MTS growth inhibition assay in Hs27 cells; format: cell-based, human; conditions: for EC50: Homo sapiens, HS27, 48 h, read-out: Hs27 48 h EC50; for Hs27 48 h EC10: highest concentration giving 90% relative new cell growth after 48 h, 0.5% DMSO
Procedure: A cell growth assay using the MTS reagent was conducted to assess the general toxicity of each chalcone compound. […] Experiments were conducted in triplicate. In a typical experiment, there are two plates. The first is the control plate, which allows one to assess the starting cell population on the day of drug addition (Day 0). The second plate is the test plate where cells are plated and tested with different drug concentrations on Day 0. For example, either CHO cells or Hs27 cells were plated in a 200 µL volume at 1000 cells/well on both the control and test plates and incubated overnight to allow the cells to adhere. On Day 0, 1 μL of PBS was added to the control plate wells so that their total volume was 201 μL. MTS reagent (Promega Cell Titer 96 Aqueous non-radioactive cell proliferation reagent, Promega, Madison, WI, USA) was added (20 μL) to each well on the control plate, and that plate was incubated for 4 h in a 5% CO2 atmosphere at 37 °C and then read on the plate reader.
(§1) On Day 0, 1 μL of a 200× stock solution of each chalcone was added to the respected well on the test plate, and each condition was tested in triplicate. Drug solutions were prepared in advance in 100% DMSO and dosed so that the final DMSO concentration was 0.5%. For example, 1 μL of chalcone solution was added to the cells plated in each well in 200 μL of media. Of note, the respective chalcone addition occurred after an initial overnight incubation of each cell line in each well to reach Day 0 (the drugging day). After the chalcone was added, the cells were incubated in 5% CO2 for 48 h at 37 °C. After 48 h, the MTS reagent (Promega, Madison, WI, USA) was added (20 μL), and the test plates were incubated for an additional 4 h, and then, absorbance at 490 nm was measured on a BioTek Synergy MX plate reader. […] IC50 values were determined from the corresponding plot of relative absorbance at 490 nm vs. the drug concentration.
(§2) For highly colored materials like the chalcones, it is important to consider the contribution of the compound’s own absorbance to the MTS assay. To correct for the absorbance contribution of the chalcone itself, we measured each chalcone’s absorbance (Chalcone Abs) at 490 nm at the respective concentration (e.g., 10 µM) and subtracted the absorbance of the media background (blank Abs). This net value was then subtracted out of the Day 2 absorbance value to provide the % relative growth via the following equation:(1) % Relative Growth = (Day 2 Abs−Day 2 blank Abs)−Chalcone Abs−blank Abs−(Day 0 Abs−Day 0 blank Abs)/(Day 2 Control Abs −Day 2 blank Abs)−(Day 0 Abs−Day 0 blank Abs) ×100%
With the chalcones in hand, we then evaluated their growth-inhibition properties in Chinese hamster ovary (CHO-K1) cells and human Hs27 fibroblast cells.

CHO-K1 cells = assay: cells; format: cell-based, Chinese hamster; conditions: for CHOK1 48 h EC10: Chinese hamster; for EC50: Cricetulus griseus, CHO-K1, 48 h, read-out: CHOK1 48 h EC50
Procedure: A cell growth assay using the MTS reagent was conducted to assess the general toxicity of each chalcone compound. Briefly, cell growth was assayed in sterile 96-well microtiter plates (Costar 3599, Corning Inc., Corning, NY, USA) in the presence of each chalcone. Experiments were conducted in triplicate. In a typical experiment, there are two plates. The first is the control plate, which allows one to assess the starting cell population on the day of drug addition (Day 0). The second plate is the test plate where cells are plated and tested with different drug concentrations on Day 0. For example, either CHO cells or Hs27 cells were plated in a 200 µL volume at 1000 cells/well on both the control and test plates and incubated overnight to allow the cells to adhere. On Day 0, 1 μL of PBS was added to the control plate wells so that their total volume was 201 μL. MTS reagent (Promega Cell Titer 96 Aqueous non-radioactive cell proliferation reagent, Promega, Madison, WI, USA) was added (20 μL) to each well on the control plate, and that plate was incubated for 4 h in a 5% CO2 atmosphere at 37 °C and then read on the plate reader.
as §1, §2
With the chalcones in hand, we then evaluated their growth-inhibition properties in Chinese hamster ovary (CHO-K1) cells and human Hs27 fibroblast cells. […] The results are shown in Table 2 along with a SAR summary of our findings in the host Hs27 cells.

PIV5-GFP = PIV5-GFP viral GFP expression in Hs27 cells by flow cytometry; format: cell-based, parainfluenza virus 5; conditions: 10 µM; Hs27 cells infected with PIV5-GFP
Procedure: Parainfluenza virus 5 (PIV5) expressing green fluorescence protein (GFP) was derived from cDNA, grown at 37 °C in Madin–Darby bovine kidney (MDBK) cells and titered on CV-1 (African green monkey kidney) cells with a fibroblast morphology as previously described. MDBK and CV-1 cells were the kind gift of Dr. Robert Lamb (Northwestern University). Cells were infected with virus diluted in DMEM supplemented with 10% bovine serum albumin (BSA) for 1 h or mock infected with media alone. Following incubation, cells were washed with phosphate-buffered saline (PBS) and cultured in DMEM supplemented with 2% heat-inactivated (HI) FBS.
Chalcone treatments were performed in DMEM supplemented with 10% HI FBS at the indicated concentrations and for indicated periods of time. Chalcone stocks were reconstituted in 100% dimethyl sulfoxide (DMSO) at a concentration of 10 mM and were serially diluted to working concentrations in DMSO. DMSO control treatments to test the effect of the vehicle were performed at volumes corresponding to the volume of chalcone added during each experiment (i.e., 1 µL chalcone DMSO solution/1 mL DMEM [10 µM] utilized alongside the DMSO control of 1 µL/1 mL DMEM). For cytotoxicity assays, untreated controls were subtracted from DMSO and chalcone sample values to account for the background signal.
For cytotoxicity assays, cells were stained with propidium iodide (PI) at a dilution of 1:100. Cell viability was determined via flow cytometry using the CytoFLEX (Beckman Coulter, Brea, CA, USA). CytExpert software (Beckman Coulter, version 2.4) was used to analyze independent events. PIV5 infection was monitored using flow cytometry via the FITC channel by analyzing GFP expression of individual cells. ZIKV infection was monitored utilizing Flavivirus group antigen–antibody (D1-4G2-4-15; Novus Biologicals, Littleton, CO, USA) staining for the ZIKV envelope protein. Cells were fixed and permeabilized using eBioscience Intracellular Fixation and Permeabilization Buffer (Invitrogen, Thermo Fisher Scientific, MA, USA) according to the manufacturer’s instructions. Secondary staining was performed using an anti-Alexa Fluor 488 (AF488) antibody (Invitrogen, Thermo Fisher Scientific, MA, USA). OC43 infection was monitored utilizing a primary antibody targeted toward the OC43 nucleocapsid protein (NP, MAB9013, Sigma-Aldrich, St. Louis, MO, USA). Secondary staining was performed using an AF488 antibody. Cells were fixed and permeabilized as previously described. LACV infection was monitored utilizing an anti-LACV Gc 807.31ab antibody kindly provided by Andrew Pekosv. Secondary staining was performed using an AF488 antibody. Cells were fixed and permeabilized as previously described.
To measure the effect of chalcone treatment on PIV5 virus growth, Hs27 cells were infected with PIV5-GFP. This engineered negative sense single-stranded RNA virus expresses GFP, which serves as a genome-encoded protein readout. After entering a cell, PIV5 must first undergo primary transcription to convert its genome into mRNA. As genome replication begins, nascent genomes then become templates for further conversion to mRNA and viral gene expression becomes amplified in a process called secondary transcription. For viral proteins to be detectable in cell culture, this amplification must first take place, making the expression of GFP a direct indicator of whether secondary transcription has successfully occurred. […] As shown in the representative data in Figure 4A, ~82% of DMSO-treated PIV5-GFP infected cells were positive for GFP expression. This was reduced to ~2% GFP-positive cells after treatment with 8o. […] These chalcones were therefore selected for further screening for cytotoxicity.
The GFP IC50 was defined as the concentration of chalcone required to inhibit the GFP expression (as measured via flow cytometry) by 50% when compared to DMSO-treated cells. […]

mTOR signaling [1] = assay: Western blot of prps6 and rps6 as readouts of mTOR signaling in PANC-1 cells; format: cell-based; conditions: 72 h, chalcones 10 µM, rapamycin 10 nM
Procedure: PANC-1 cells were cultured in 6-well dishes and were lysed using modified radioimmunoprecipitation assay (RIPA) buffer (20 mM HEPES, pH 7.0, 150 mM NaCl, 1 mM EDTA, 1% NP-40, 1% deoxycholate, and 0.1% sodium dodecyl sulfate [SDS]) containing a complete protease inhibitor cocktail (Roche, Mannheim, Germany) and PhosSTOP phosphatase inhibitor cocktail (Roche, Mannheim, Germany). Protein concentrations were determined using the bicinchoninic acid (BCA) protein assay kit (Pierce, Rockford, IL, USA) according to manufacturer’s instructions. Cell lysates with 25 µg of protein were resolved on 12% sodium dodecyl sulfate-polyacrylamide gel electrophoresis (SDS-PAGE) gels and electro-transferred onto polyvinylidene difluoride (PVDF) membranes (Trans-Blot Turbo Transfer System, BioRad, Hercules, CA, USA). The samples were probed with rabbit monoclonal antibodies for the P-rps6 (1:1000) protein (Cell Signaling, Danvers, MA, USA) and mouse monoclonal antibodies for rps6 (1:1000) (Cell Signaling) and β-actin (1:5000) (Abcam, Waltham, MA, USA) proteins. Blots were visualized using anti-rabbit or anti-mouse horseradish peroxidase (HRP)-conjugated antibodies (Cell Signaling) and chemiluminescence reagent (Thermo Fisher Scientific, Waltham, MA, USA).
PANC-1 cells were chosen for this study as they are highly dependent on mTOR for their growth. PANC-1 cells were cultured and treated with the positive control rapamycin (10 nM) and chalcones NM5, 8a, 8o, 8s, 8v, and 8w (10 μM) for 72 h. Rapamycin and the chalcones were dissolved in 100% DMSO and dosed so that the final DMSO concentration was 0.1%. Cell lysates were collected and analyzed to determine the relative protein expression levels of rps6, prps6, and β-actin as a loading control (see Figure 12).

mTOR signaling [2] = test system: mTOR signaling; design: method as in PMID 28442256; conditions: SGR2 and Huh7.5 cell lines; cited from earlier work

With `CCOc1ccc(Br)cc1/C=C/C(=O)c1c(O)cccc1OC` [Chalcone 8q, (2E)-3-(5-Bromo-2-Ethoxy-Phenyl)-1-(2-Hydroxy-6-Methoxy-Phenyl)-Propenone] the EC50 (Hs27 cells) was 9.9 ± 1 µM, the “Hs27 48 h EC10” value (Hs27 cells) was 2.7 ± 0.04 µM and the “CHOK1 48 h EC10” value (CHO-K1 cells) was 4.3 ± 0.4 µM. The EC50 (CHO-K1 cells) was 6 ± 0.3 µM.

With `CCOc1ccc(Br)cc1/C=C/C(=O)c1c(O)cccc1OCCC(C)C` [Chalcone 8r, (2E)-3-(5-Bromo-2-Ethoxy-Phenyl)-1-[2-Hydroxy-6-(3-Methyl-Butoxy)-Phenyl]-Propenone] the EC50 (Hs27 cells) was 16.9 ± 2 µM, the “Hs27 48 h EC10” value (Hs27 cells) was 9.4 ± 0.7 µM and the “% GFP relative to DMSO treated (10 µM)” value (PIV5-GFP) was 108.7%. The “CHOK1 48 h EC10” value (CHO-K1 cells) was 4.7 ± 0.4 µM and the EC50 (CHO-K1 cells) was 6.8 ± 0.7 µM.

With `CCOc1ccc(Br)cc1/C=C/C(=O)c1c(O)cccc1OCCc1ccccc1` [Chalcone 8t, (2E)-3-(5-Bromo-2-Ethoxy-Phenyl)-1-[2-Hydroxy-6-Phenethyloxy]-Propenone] the EC50 (Hs27 cells) was 10.3 ± 0.5 µM, the “Hs27 48 h EC10” value (Hs27 cells) was 6.4 ± 0.5 µM and the “% GFP relative to DMSO treated (10 µM)” value (PIV5-GFP) was 84.9%. For the same compound, the “CHOK1 48 h EC10” value (CHO-K1 cells) was 1.1 ± 0.1 µM and the EC50 (CHO-K1 cells) was 2.6 ± 0.2 µM.

In the case of `COc1ccc(Br)cc1/C=C/C(=O)c1c(O)cccc1OCCc1ccccc1` [Chalcone 8u, (2E)-3-(5-Bromo-2-Methoxy-Phenyl)-1-[2-Hydroxy-6-Phenethyloxy]-Propenone], the EC50 (Hs27 cells) is reported as 4.9 ± 0.6 µM, the “Hs27 48 h EC10” value (Hs27 cells) is reported as 3.4 ± 0.5 µM and the “CHOK1 48 h EC10” value (CHO-K1 cells) is reported as 1.0 ± 0.1 µM. It also gave an EC50 (CHO-K1 cells) of 4.3 ± 0.3 µM.

For `COc1ccc(/C=C/C(=O)c2c(O)cccc2OCc2ccccc2)c(OC)c1OC` [Chalcone 8y, (2E)-1-(2-Benzloxy-6-Hydroxy-Phenyl)-3-(2,3,4-Trimethoxy-Phenyl)-Propenone], the EC50 (Hs27 cells) was 7.7 ± 0.2 µM, the “Hs27 48 h EC10” value (Hs27 cells) was 6.3 ± 0.2 µM and the “CHOK1 48 h EC10” value (CHO-K1 cells) was 7.2 ± 0.6 µM. The EC50 (CHO-K1 cells) was 15.8 ± 1 µM.

With `COc1ccc(/C=C/C(=O)c2cc(Br)cc(Br)c2O)cc1OC` [NM5, (2E)-1-(3,5-Dibromo-2-hydroxyphenyl)-3-(3,4-dimethoxyphenyl)-2-propen-1-one, reference compound] the EC50 (Hs27 cells) was 1.8 ± 0.1 µM, the “Hs27 48 h EC10” value (Hs27 cells) was 1.0 ± 0.1 µM and the “prps6 expression relative to DMSO control” value (mTOR signaling [1]) was “stimulate this prps6 mTOR readout”. For the same compound, the “Effect on mTOR signaling” value (mTOR signaling [2]) was “inhibit mTOR signaling”, the “CHOK1 48 h EC10” value (CHO-K1 cells) was 1.1 ± 0.1 µM and the EC50 (CHO-K1 cells) was 6.2 ± 0.3 µM.

For `CO[C@H]1C[C@@H]2CC[C@@H](C)[C@@](O)(O2)C(=O)C(=O)N2CCCC[C@H]2C(=O)O[C@H]([C@H](C)C[C@@H]2CC[C@@H](O)[C@H](OC)C2)CC(=O)[C@H](C)/C=C(\C)[C@@H](O)[C@@H](OC)C(=O)[C@H](C)C[C@H](C)/C=C/C=C/C=C/1C` [rapamycin, reference compound], the “prps6 expression relative to DMSO control” value (mTOR signaling [1]) was “loss of prps6 expression” and the “total rps6 protein expression relative to DMSO control” value (mTOR signaling [1]) was “no significant difference”.
